Measurements as given in ChEMBL document CHEMBL5034009, “Second-Generation Dual FXR/sEH Modulators with Optimized Pharmacokinetics” (J Med Chem, 2021).
pEC50, pIC50: −log10 of the molar value. Converted amounts (≈) assume the structure as drawn. The source made the active and inactive calls. The calls are words filed in the database; no cut-off is given here.

How the values were obtained:
[1] = Metabolic stability in Sprague-Dawley rat liver microsomes assessed as half life at 10 uM preincubated with NADPH regenerating system for 5 mins followed by addition of microsome upto 60 mins by HPLC analysis; assay type: ADME
[2] = target: T1, Bile acid receptor (Homo sapiens) (UniProt Q96RI1); test: Agonist activity at recombinant human full-length FXR expressed in HeLa cells co-expressing human RXRalpha at 30 uM after 24 hrs by Dual-Glo luciferase assay; assay type: cell-based
T1 sequence (whole entry): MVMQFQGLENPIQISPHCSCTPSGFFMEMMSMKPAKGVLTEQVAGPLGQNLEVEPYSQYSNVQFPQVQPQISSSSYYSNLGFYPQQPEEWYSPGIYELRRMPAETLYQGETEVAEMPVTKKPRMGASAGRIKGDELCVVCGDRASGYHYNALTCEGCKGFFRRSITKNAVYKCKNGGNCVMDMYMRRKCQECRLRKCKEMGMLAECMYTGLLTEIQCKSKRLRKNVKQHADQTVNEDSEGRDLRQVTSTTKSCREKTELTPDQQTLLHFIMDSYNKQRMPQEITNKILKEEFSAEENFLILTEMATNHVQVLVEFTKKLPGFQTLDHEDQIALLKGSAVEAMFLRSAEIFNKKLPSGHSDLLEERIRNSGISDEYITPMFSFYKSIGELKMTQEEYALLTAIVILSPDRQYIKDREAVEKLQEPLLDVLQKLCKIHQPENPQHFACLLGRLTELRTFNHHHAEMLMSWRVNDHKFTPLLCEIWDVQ

[3] = target: T2, Bifunctional epoxide hydrolase 2 (Homo sapiens, UniProt P34913); test: Inhibition of recombinant human sEH using PHOME as substrate preincubated for 30 mins followed by substrate addition and measured after 30 mins by fluoresence-based assay
T2 sequence (P34913 whole entry): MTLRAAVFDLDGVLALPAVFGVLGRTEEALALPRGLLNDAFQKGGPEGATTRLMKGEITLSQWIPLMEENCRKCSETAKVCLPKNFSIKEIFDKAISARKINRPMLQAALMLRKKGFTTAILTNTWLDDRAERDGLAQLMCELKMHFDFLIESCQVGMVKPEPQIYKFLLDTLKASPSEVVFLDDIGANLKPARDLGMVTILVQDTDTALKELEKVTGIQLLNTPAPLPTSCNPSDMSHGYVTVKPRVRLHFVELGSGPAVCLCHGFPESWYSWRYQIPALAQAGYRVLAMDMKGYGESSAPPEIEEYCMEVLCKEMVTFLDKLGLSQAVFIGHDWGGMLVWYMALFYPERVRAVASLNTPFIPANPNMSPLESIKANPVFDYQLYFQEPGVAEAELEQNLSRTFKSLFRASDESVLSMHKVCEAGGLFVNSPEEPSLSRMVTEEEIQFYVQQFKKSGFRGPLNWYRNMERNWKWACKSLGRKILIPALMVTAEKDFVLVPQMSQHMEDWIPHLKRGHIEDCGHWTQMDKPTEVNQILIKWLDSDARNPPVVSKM

[4] = Metabolic stability in Sprague-Dawley rat liver microsomes assessed as intrinsic clearance at 10 uM preincubated with NADPH regenerating system for 5 mins followed by addition of microsome upto 60 mins by HPLC analysis; assay type: ADME; conditions: read-out: CLH
Bile acid receptor [5] = target: T3, Bile acid receptor (Homo sapiens, UniProt Q96RI1)
T3 sequence (Q96RI1 whole entry): T1 sequence (whole entry)
Description: (§1) Agonist activity at recombinant human full-length FXR expressed in HeLa cells co-expressing human RXRalpha after 24 hrs by Dual-Glo luciferase assay

[6] = Aqueous solubility of compound; assay type: physicochemical; conditions: buffer
[7] = Tmax in CD-1 mouse plasma at 10 mg/kg, po administered as single dose by LC-MS analysis; assay type: ADME, organism-based
[8] = Half life in CD-1 mouse plasma at 10 mg/kg, po administered as single dose by LC-MS analysis; assay type: ADME, organism-based
HepG2 [9] = test: Cytotoxicity against human HepG2 cells assessed as cell viability at 100 uM by WST-1 assay; assay type: cell-based; conditions: hepg2, 100 µM
[10] = Cmax in CD-1 mouse plasma at 10 mg/kg, po administered as single dose by LC-MS analysis; assay type: ADME, organism-based; set-up: route oral, dose 10 mg/kg
Bile acid receptor [11] = target: T3, Bile acid receptor; conditions: hela
Description: as §1

HepG2 [12] = test: Effect on FXR regulated gene expression in human HepG2 cells assessed as induction of SREBP1c expression at 1 uM after 8 hrs by qRT-PCR analysis
HepG2 [13] = test: Effect on FXR regulated gene expression in human HepG2 cells assessed as induction of PPARalpha expression at 1 uM after 8 hrs by qRT-PCR analysis

Row | half-life at 10 µM [1] [h] | pIC50 [3] | microsomal CLint at 10 µM [4] [µL/min/mg] | pEC50 (Bile acid receptor [5]) | SMILES | other results
1 | 1.37 | 6.57 | 16 | – | CC(C)(C)c1ccc(C(=O)NCc2c(Cl)cc(NS(C)(=O)=O)cc2Cl)cc1 | Activity [2]: inactive
2 | 5.72 | 6.76 | 4.1 | 5.36 | CS(=O)(=O)Nc1ccc(CNC(=O)c2ccc(N3CCOCC3)cc2)c(Cl)c1 | –
3 | 2.43 | 8.15 | 9.6 | – | CS(=O)(=O)Nc1ccc(CNC(=O)c2ccc(C(F)(F)F)cc2)c(Cl)c1 | solubility [6]: 5.7 µg/mL (≈ 14 µM); Tmax [7]: 1 h; half-life [8]: 5.2 h; Activity (HepG2 [9]): Non-Toxic; Cmax [10]: 4930 ng/mL
4 | 3.03 | 8.37 | 7.5 | – | CS(=O)(=O)Nc1ccc(CNC(=O)c2ccc(C3(C(F)(F)F)CC3)cc2)c(Cl)c1 | solubility [6]: 2.9 µg/mL (≈ 6.49 µM); Activity (HepG2 [9]): Non-Toxic
5 | – | – | – | – | CS(=O)(=O)Nc1ccc(CNC(=O)c2ccc(C3(O)CC3)cc2)c(Cl)c1 | EC50 (Bile acid receptor [11]): Nd(Unstable)
6 | 1.8 | 7.51 | 12 | 5.66 | CCOc1ccc(C(=O)NCc2ccc(NS(C)(=O)=O)cc2Cl)cc1 | –
7 | 0.917 | 8.05 | 24 | – | COC(C)(C)c1ccc(C(=O)NCc2ccc(NS(C)(=O)=O)cc2Cl)cc1 | Activity [2]: inactive
8 | 1.85 | 7.92 | 12 | 6.40 | CC(C)Oc1ccc(C(=O)NCc2ccc(NS(C)(=O)=O)cc2Cl)cc1 | –
9 | 4.5 | 7.42 | 5 | – | COc1ccc(C(=O)NCc2ccc(NS(C)(=O)=O)cc2Cl)cc1 | Activity [2]: inactive
10 | 2.35 | 8.70 | 9.6 | 5.92 | CC(F)(F)c1ccc(C(=O)NCc2ccc(NS(C)(=O)=O)cc2Cl)cc1 | –
11 | 2.47 | 7.66 | 9.1 | 5.96 | CS(=O)(=O)Nc1ccc(CNC(=O)c2ccc(OC(F)(F)F)cc2)c(Cl)c1 | –
12 | 0.483 | 7.80 | 47 | – | CC(C)(C)c1ccc(C(=O)NCc2ccc(NS(C)(=O)=O)cc2F)cc1 | Activity [2]: inactive
13 | 0.883 | – | 25 | – | CN(C)c1ccc(C(=O)NCc2ccc(NS(C)(=O)=O)cc2Cl)cc1 | –
14 | – | – | – | 7.40 | CC(C)(C)c1ccc(C(=O)NCc2ccc(N)cc2Cl)cc1 | –
15 | 1.12 | 7.15 | 20 | 6.39 | CS(=O)(=O)Nc1ccc(CNC(=O)c2ccc(N3CCCCC3)cc2)c(Cl)c1 | –
16 | 2.42 | 7.07 | 9.3 | – | CC(C)(C)c1ccc(C(=O)NCc2c(F)cc(NS(C)(=O)=O)cc2F)cc1 | Activity [2]: inactive
17 | 1.28 | – | 17 | – | CS(=O)(=O)Nc1ccc(CNC(=O)c2ccc(N3CCCC3)cc2)c(Cl)c1 | –
18 | 1.3 | 7.68 | 17 | – | CC(C)(C)c1ccc(C(=O)NCc2ccc(NS(=O)(=O)C(F)(F)F)cc2Cl)cc1 | Activity [2]: inactive
19 | 0.55 | 8.11 | 41 | 5.82 | CC(C)(C)c1ccc(C(=O)NCc2ccc(NS(=O)(=O)C3CC3)cc2Cl)cc1 | –
20 | 1.03 | 7.89 | 22 | 5.40 | CS(=O)(=O)Nc1ccc(CNC(=O)c2ccc(CC(F)(F)F)cc2)c(Cl)c1 | –
21 | 1.6 | 8.40 | 14 | 5.49 | CS(=O)(=O)Nc1ccc(CNC(=O)c2ccc(C(F)(F)C(F)(F)F)cc2)c(Cl)c1 | –
22 | 4.23 | 6.95 | 5.4 | – | CS(=O)(=O)Nc1ccc(CNC(=O)c2ccc(C3(O)COC3)cc2)c(Cl)c1 | Activity [2]: inactive
23 | 1.08 | – | 21 | – | CC(C)(C)c1ccc(C(=O)NCc2ccc(NS(C)(=O)=O)cc2Cl)cc1 | –
24 | 2.62 | 7.03 | 8.6 | 4.89 | CS(=O)(=O)Nc1ccc(CNC(=O)c2ccc(N3CCC3)cc2)c(Cl)c1 | –
25 | 2.3 | 8.00 | 9.8 | – | CS(=O)(=O)Nc1ccc(CNC(=O)c2ccc(S(F)(F)(F)(F)F)cc2)c(Cl)c1 | Activity [2]: inactive
26 | 0.783 | 8.21 | 28 | 6.30 | CCS(=O)(=O)Nc1ccc(CNC(=O)c2ccc(C(C)(C)C)cc2)c(Cl)c1 | –
27 | 20.2 | 6.77 | 1.5 | 7.49 | CC(C)(O)c1ccc(C(=O)NCc2ccc(NS(C)(=O)=O)cc2Cl)cc1 | solubility [6]: 48 µg/mL (≈ 121 µM); Activity (HepG2 [12]): inactive; Activity (HepG2 [13]): inactive; Activity (HepG2 [9]): Non-Toxic
28 | 1.35 | 7.31 | 17 | 6.25 | CS(=O)(=O)Nc1ccc(CNC(=O)c2ccc(C34CC(C3)C4)cc2)c(Cl)c1 | –

Row | SMILES | half-life at 10 µM [1] [h] | pIC50 [3] | microsomal CLint at 10 µM [4] [µL/min/mg] | pEC50 (Bile acid receptor [5]) | other results
29 | CC(C)S(=O)(=O)Nc1ccc(CNC(=O)c2ccc(C(C)(C)C)cc2)c(Cl)c1 | 0.983 | 7.95 | 23 | – | –
